One block for each molecule: values may come before it.
Key:
[1] = test system: array of over 9,000 human proteins; assay: ProtoArray Human Protein Microarray binding assay
Protocol: (§1) PC3-M cells were pre-treated with 10 μM KBU2046 or with KBU2046-biotin for three days, and single cell motility assays conducted. Data are the mean±SEM of a single experiment of N≥24 cells; * denotes Student's 2-sided t-test p-value </=0.05 compared to control. […] PC3-M cells were labeled with 1 μM KBU2046-biotin+/−10 μM free KBU2046, followed by detection with FITC-streptavidin, and visualization by fluorescent microscopy (with equal exposure times). […] KBU2046-biotin was hybridized to ProtoArray® Human Protein Microarray's at 0.5 and 10 μM with and without 10 fold excess free KBU2046.
Protein Microarray Binding Assay. The ProtoArray® assay, using the Human Protein Microarray platform, was performed by Invitrogen.
First, the positive control used in protein arrays was staurosporine.

[2] = test system: human prostate, breast, colon and lung cancer cells; assay: Single cell migration (motility) assay; format: cell-based; conditions: PC3-M cells, 10 μM, three days
Source text: FIG. 1a is a schematic flow of probe synthesis and development strategy. […] Values are mean±SEM of a single experiment in replicates of N=4, with similar findings in multiple separate experiments (also N=4). […] Values are mean±SEM of a single experiment in replicates of N=24, with similar findings in a separate experiment (also N=24). *Denotes Student's t test P value <0.05, compared to controls. […] Values are mean±SEM from N>2 separate experiments, each in replicates of N=3. […] Values are the mean±SD number of total, CFU-GM, CFU-GEMM or BFU-E colonies at 14 days after treatment with KBU2046, from a single experiment in replicates of N=2. […] Values are the mean±SD of a single experiment, with similar results seen in a separate experiment, both in replicates of N=2.
Cell Migration Assays. Single cell motility assays were conducted by adding 10^4 cells to 35 mm tissue culture dishes (BD Falcon) coated with collagen I (BD Biosciences), incubating at 37° C. in 5% CO2, performing time-lapse imaging using a Biostation (Nikon Instruments), tracking the path of N≥35 cells using ImageJ software and the Manual Tracker plug-in, and using Chemotaxis and Migration Tool plug-in for data analysis.

PC3-M cells [3] = assay: KBU2046-biotin labelling of cells (FITC-streptavidin); format: cell-based, human; conditions: 1 μM KBU2046-biotin +/- 10 μM free KBU2046
Protocol: as §1

recombinant CSRP1 = recombinant CSRP1 (Homo sapiens, UniProt P21291); assay: Pull down of recombinant CSRP1 by KBU2046-biotin; format: binding
Chain of recombinant CSRP1 (P21291 whole entry): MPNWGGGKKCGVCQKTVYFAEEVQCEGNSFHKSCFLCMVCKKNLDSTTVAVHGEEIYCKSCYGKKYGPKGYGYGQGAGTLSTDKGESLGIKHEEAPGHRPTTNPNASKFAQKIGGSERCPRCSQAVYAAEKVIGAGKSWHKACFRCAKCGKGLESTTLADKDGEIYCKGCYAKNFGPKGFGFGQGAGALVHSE
Protocol: This yielded 3 proteins, shown in table, for an initial hit rate of 0.03%. Next, free KBU2046 was needed to inhibit binding by >75%. Of the two remaining candidates, isovaleryl-CoA dehydrogenase (ICD) was eliminated. […] Cysteine and glycine-rich protein 1 (CSRP1) was deemed the top protein, though its binding characteristics at 10 μM+free KBU2046 were similar to ICD, albeit not as extreme.

PC3-M cells [4] = assay: Boyden chamber cell invasion assay, PC3-M cells; format: cell-based, human; conditions: 10 μM compound, 3 days
Protocol: Following the synthetic strategy outlined in FIG. 1a, 4′,5,7-trihydroxyisoflavone was used as the chemical scaffold. […] Note, demethylation within the cell cannot be predicted. Therefore, the loss of function was considered to be informative for methylated compounds. […] This adds further evidence of the importance of the C4′-hydroxyl for activity. […] For cell invasion, PC3-M cells were treated with 10 μM compound for a total of 3 days, and cell invasion assays were run at the end of the 3 day period, in the presence of compound. Values are the mean±SEM of three separate experiments, each run in replicates of N=3. […] Values are the mean±SEM of a single experiment, in replicates of N=4, repeated at least once (also N=4). […] The initial structure-activity relationship (SAR) data informed the second round of compound synthesis. […] Compared to 4′,5,7-trihydroxyisoflavone, KBU2046 is non-planar, lacks hydroxyl groups, and particularly those that mediate ER binding, is halogen-substituted, and has a distinctly different biological profile. These characteristics place KBU2046 in a chemically distinct class, compared to the starting compound.
Cell Invasion Assays. Boyden chamber cell invasion assays were performed as previously described^9, using either denatured collagen (BD Biosciences) or type IV human collagen (BD Biosciences), with the experiments repeated, each in N=4 replicates. In some experiments, as indicated, cells were transfected with an expression plasmid, using Lipofectamine 2000™ (Invitrogen), or with siRNA, using DharmaFect Duo (Thermo Scientific) and co-transfected with β-Galactosidase (Plasmid pCMV⋅SPORT-βgal; Life Technology).
The initial round of synthesis was designed to examine the removal of individual chemical fragments. In this manner, the importance of these functional groups in mediating efficacy (inhibition of cell invasion) could be determined. […] Initial assays were performed with PC3 and PC3-M cells. However, as these studies yielded similar findings, subsequent screening assays utilized only PC3-M cells. In designing chemical synthetic routes, priority was given to efficacy and toxicity parameters. […] These additional design features included removal of fragments that mediated genistein binding to the estrogen receptor (ER), as determined by ER-genistein 3D x-ray crystal structures (Protein Data Base IDs: 1X7R and 1X7J, for crystal structures of ERα and ERβ with bound genistein, respectively). These features also included removal of chemical fragments that are considered to increase susceptibility to rapid metabolism, for example by the cytochrome P450 (CYP) pathway. The final feature involved incorporation of chemical characteristics previously shown to be associated with effective drugs and which together generally impart more favorable pharmacologic properties, including those described by Lipinski et al. (Lipinski, C. A. et al., Adv Drug Deliv Rev 46, 3-26 (2001)).

[5] = test system: phosphorylation of p38 MAPK or of HSP27; conditions: cited from earlier work
[6] = test system: human PCa PC3-M cell orthotopic implants; conditions: murine orthotopic model; cited from earlier work
[7] = test system: protein phosphorylation in PC3-M and PC3 cells; assay: KinomeView phospho-motif antibody screen; format: cell-based, human; conditions: 10 μM, 3 days, ±TGFβ
Source text: Seeking to identify KBU2046's biological target(s), alternative methods were pursued. The KinomeView® panel of antibodies (Cell Signaling Technology, Inc.) detect established protein phosphorylation motifs, and were used to probe for KBU2046-induced changes in protein phosphorylation (FIG. 4a and FIG. 17). Phosphoprotein changes that met the following criteria were prioritized: were induced in cells in vitro as well as in tumors of treated mice (from FIG. 2a), that counteracted transforming growth factor β (TGFβ)-induced effects, and that were reproducible. TGFβ is ubiquitous in vivo, is known to increase PCa cell invasion (Huang, X. et al., Cancer Research 65, 3470-8 (2005)), and KBU2046's anti-invasion efficacy remains in spite of TGFβ-stimulated increases in cell invasion (FIG. 18). Genistein was evaluated under identical treatment conditions for comparison. […] In tumors of treated animals KBU2046 had this same effect on this 83 kDa protein band (green arrow in FIG. 17a). The high molecular selectivity of KBU2046 was further supported by its failure to inhibit over 400 different protein kinases and 20 phosphatases examined, in three different in vitro assay systems (see, Example 1).
Phospho-proteomic Analysis. The Kinoview™ and PhosphoScan™ assays were performed by Cell Signaling Technology Inc. […]

[8] = test system: human prostate cells (PC3, PC3-M, 1532NPTX, 1542NPTX, 1532CPTX, 1542CPTX); conditions: nanomolar concentrations; cited from earlier work
[9] = test system: matrix metalloproteinase 2 (MMP-2) expression; conditions: prospective human trial; cited from earlier work
MKK4 = molecular target: T1, MKK4 (Homo sapiens, UniProt P45985, S257E/T261E); conditions: low nanomolar concentrations; cited from earlier work
T1 sequence (P45985 37-399 S257E/T261E): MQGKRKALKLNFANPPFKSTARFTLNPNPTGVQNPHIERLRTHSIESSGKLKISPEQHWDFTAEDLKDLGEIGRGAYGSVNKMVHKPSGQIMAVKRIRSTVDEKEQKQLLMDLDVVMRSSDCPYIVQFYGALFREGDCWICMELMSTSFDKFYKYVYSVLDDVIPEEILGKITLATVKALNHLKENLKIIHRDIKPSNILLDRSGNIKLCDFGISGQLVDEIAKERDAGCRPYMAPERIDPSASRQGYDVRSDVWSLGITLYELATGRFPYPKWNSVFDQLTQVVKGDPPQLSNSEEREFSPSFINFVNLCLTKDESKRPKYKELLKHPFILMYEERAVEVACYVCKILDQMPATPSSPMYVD

binding to HSP90β and CDC37 on the protein arrays [1]: not bound | binding to protein arrays [1]: lack of binding | initial hit rate ([1]; 0.5 and 10 μM): 0.03% | number of proteins meeting binding criteria ([1]; 0.5 and 10 μM, absence of free KBU2046): 3 | pull down of recombinant CSRP1 (recombinant CSRP1): no evidence of such was observed
SMILES: O=C(CCCC[C@@H]1SC[C@@H]2NC(=O)N[C@@H]21)NCCOCCOCCOCCOc1ccc2c(c1)OCC(c1ccc(F)cc1)C2=O (stereo partly drawn) [KBU2046-biotin]
single cell motility [2]: biologically active | labelling of cells (PC3-M cells [3]): labels permeablized cells in a manner that can be competed off

SMILES: O=c1c(-c2ccc(O)cc2)coc2cc(O)cc(O)c12 [genistein, 4′,5,7-trihydroxyisoflavone]
effect on cell invasion (PC3-M cells [4]): had anti-invasion efficacy | downstream phosphorylation of p38 MAPK and HSP27 [5]: inhibiting downstream phosphorylation of p38 MAPK | inhibition of metastasis [6]: inhibit | changes in protein phosphorylation [7]: induced widespread changes in protein phosphorylation | inhibition of human PCa cell invasion in vitro [8]: inhibit human prostate cancer (PCa) cell invasion in vitro | MMP-2 expression in prostate tissue [9]: downregulates matrix metalloproteinase 2 (MMP-2) expression in prostate tissue | inhibition of MKK4 kinase activity (MKK4): inhibited the kinase activity

SMILES: CN[C@@H]1C[C@H]2O[C@@](C)([C@@H]1OC)n1c3ccccc3c3c4c(c5c6ccccc6n2c5c31)C(=O)NC4 [staurosporine, reference compound]
number of proteins bound at levels >/=10 fold above background ([1]; positive control): 214

Source: patent US20210293825A1, “METHODS FOR PRECISION THERAPEUTIC TARGETING OF HUMAN CANCER CELL MOTILITY AND KITS THEREOF” (UNITED STATES GOVERNMENT AS REPRESENTED BY THE DEPARTMENT …, priority 2018, published 2021)
